Source: patent publication US20230312610A1, “Anti-Microbial Compositions” (5D HEALTH PROTECTION GROUP LTD, priority 2020, published 2023)
Values after ≈ are worked out from the molar mass of the structure shown.

Legend:
S. aureus (ATCC 29213) = experiment: MIC measurement (adapted CLSI M07-A11 broth dilution); assay type: cell-based; conditions: for MIC: S. aureus (ATCC 29213), MHB, overnight 37° C.
Experimental: (§1) MIC measurements were performed using an adapted method described in the Clinical and Laboratory Standards Institute (CLSI) guidelines M07-A11. Compounds were serial diluted two-fold in Mueller Hinton Broth (MHB) in 96 well plates. A positive growth control and a negative growth control were also included in the well plates.
(§2) A colony suspension of S. aureus (ATCC 29213), P. aeruginosa (ATCC 15442) and C. albican was prepared by taking several colonies from a fresh agar plate and suspending them in MHB. The suspension was adjusted to 0.5 McFarland (~1 × 10^8 CFU/mL) and diluted 1:100. The inoculum was then added to wells at a final concentration of […]. Plates were incubated overnight at 37° C. The following day, MICs were determined as the lowest concentration that no growth could be visually observed.
(§3) An 80 mg/ml solution of T-EDTA was prepared by dissolving T-EDTA (99% pure, Acros Organics) in sterile distilled water. The pH of this solution was measured at 10.5, using a pH electrode. A 16 mg/ml solution of DTPA was prepared by dissolving DTPA (98%+ Acros Organics) in distilled water, and adjusting pH to 10.5 using the addition of sodium hydroxide.

[1] = test system: P. aeruginosa (ATCC 15442); experiment: as above; assay type: cell-based; conditions: for MIC: P. aeruginosa (ATCC 15442), MHB, overnight 37° C.
Experimental: as §1, §2, §3

[2] = Concentration studies: loading of complex in aqueous solution; assay type: physicochemical
Experimental: 3.29 g silver nitrate was dissolved in 4.71 g demineralised water to produce a silver nitrate solution. 2.58 g copper sulphate pentahydrate was dissolved in 16.09 g demineralised water to produce a copper sulphate solution. Silver nitrate solution was added to the DPTA solution with vigorous stirring. […] Copper sulphate solution was added to the white dispersion.
2.39 g silver nitrate was dissolved in 4.61 g demineralised water to produce a silver nitrate solution. 2.08 g zinc sulphate monohydrate was dissolved in 15.92 g demineralised water to produce a zinc sulphate solution. […] Zinc sulphate solution was added to the white dispersion.
0.24 g silver nitrate (AgNO3) was dissolved in 3.26 g demineralised water to produce a silver nitrate solution. 0.66 g aluminium sulphate hexadecahydrate (Al2H32O28S3) was dissolved in 8.34 g demineralised water to produce an aluminium sulphate solution. […] Aluminium sulphate solution was added to the white dispersion.
Silver nitrate solution was formed by dissolving 0.24 g silver nitrate (AgNO3) in 3.26 g demineralised water.

C. albican (ATCC 10231) = experiment: MIC measurement (adapted CLSI M07-A11 broth dilution); assay type: cell-based; conditions: MHB, overnight 37° C.
Experimental: as §1, §2

[3] = clear aqueous solution as prepared

O=C([O-])CN(CCN(CC(=O)[O-])CC(=O)[O-])CCN(CC(=O)[O-])CC(=O)[O-].[Ag+].[Ag+].[Al+3] [Ag2Al(DTPA)]
MIC (S. aureus (ATCC 29213)): 370 µg/mL
MIC [1]: 450 µg/mL
theoretical concentration of the complex in solution [2, 3]: 2.9%
MIC (C. albican (ATCC 10231)): 530 µg/mL

O=C([O-])CN(CCN(CC(=O)[O-])CC(=O)[O-])CC(=O)[O-].[Ag+].[Ag+].[Cu+2] [Ag2Cu(EDTA), reference compound]
MIC (S. aureus (ATCC 29213)): 98 µg/mL
MIC [1]: 6 µg/mL

O=C(O)CN(CCN(CC(=O)O)CC(=O)O)CCN(CC(=O)O)CC(=O)O [DTPA, diethylenetriaminepentaacetic acid, reference compound]
MIC (S. aureus (ATCC 29213)): 1000 µg/mL (≈ 2.54 mM)
increase in potency (MIC) compared to uncomplexed T-EDTA (S. aureus (ATCC 29213); S. aureus, versus uncomplexed T-EDTA): 1.25 fold
MIC [1]: 2000 µg/mL (≈ 5.08 mM)
increase in potency (MIC) compared to uncomplexed T-EDTA ([1]; P. aeruginosa, versus uncomplexed T-EDTA): 2.5 fold

Ag3Cu(DTPA) [Ag3Cu(DPTA)]
MIC (S. aureus (ATCC 29213)): 6 µg/mL
increase in potency (MIC) versus prior art compound Ag2Cu(EDTA) (S. aureus (ATCC 29213); S. aureus, versus Ag2Cu(EDTA)): approximately 16 fold
MIC [1]: 1.6 µg/mL
increase in potency (MIC) versus prior art compound Ag2Cu(EDTA) ([1]; P. aeruginosa, versus Ag2Cu(EDTA)): approximately 4 fold
total soluble solids content of the solution ([2]; clear aqueous solution of the complex as prepared): 22.5 % w/w

O=C([O-])CN(CCN(CC(=O)[O-])CC(=O)[O-])CCN(CC(=O)[O-])CC(=O)[O-].[Ag+].[Ag+].[Bi+3] [Ag2Bi(DTPA), Ag2Bi(DPTA)]
MIC (S. aureus (ATCC 29213)): 190 µg/mL
MIC [1]: 94 µg/mL
theoretical concentration of the complex in solution [2, 3]: 0.02 mol/kg
theoretical total solids concentration [2, 3]: 9.7%
MIC (C. albican (ATCC 10231)): 11 µg/mL
